Experimental data from US10294229B2, “Heteroaryl substituted aminopyridine compounds” (BRISTOL-MYERS SQUIBB COMPANY, priority 2015, dated 2019).

How the values were obtained:
[1] = target: IRAK4 (Homo sapiens (Human), UniProt Q9NWZ3); experiment: IRAK4 Inhibition Assay; format: biochemical; settings: ATP 500 μM; IRAK4 0.6 nM
Summary of the method: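 Mobility-shift kinase assay: 0.6 nM IRAK4, 500 μM ATP, 1.5 μM fluorescent peptide, 60 min, room temperature. Percent inhibition was normalised between enzyme-free and DMSO-only wells.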

[2] = Caco-2 Permeability Assay; format: in vitro ADME; settings: human, Caco-2, test compound 3 μM
Summary of the method: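 Bidirectional permeability measured over 2 h at 37° C, compound dosed at 3 μM in the donor compartment (apical for absorptive, basolateral for secretive) with plain buffer as receiver.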

[3] = tested on: Human whole blood stimulated with a TLR2 agonist (lipoteichoic acid), IL-6 levels; experiment: IRAK4 Whole Blood Assay; format: cell-based; settings: Homo sapiens, lipoteichoic acid 10 μg/mL
Summary of the method: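 IL-6 was quantified by cytometric bead assay in supernatants of human blood (ACD-A) stimulated for 5 h with lipoteichoic acid at 10 μg/mL final. Compound exposure preceded stimulation for 60 min at 37 °C, 5% CO2.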

Chain of IRAK4 (Q9NWZ3 whole entry, species assumed): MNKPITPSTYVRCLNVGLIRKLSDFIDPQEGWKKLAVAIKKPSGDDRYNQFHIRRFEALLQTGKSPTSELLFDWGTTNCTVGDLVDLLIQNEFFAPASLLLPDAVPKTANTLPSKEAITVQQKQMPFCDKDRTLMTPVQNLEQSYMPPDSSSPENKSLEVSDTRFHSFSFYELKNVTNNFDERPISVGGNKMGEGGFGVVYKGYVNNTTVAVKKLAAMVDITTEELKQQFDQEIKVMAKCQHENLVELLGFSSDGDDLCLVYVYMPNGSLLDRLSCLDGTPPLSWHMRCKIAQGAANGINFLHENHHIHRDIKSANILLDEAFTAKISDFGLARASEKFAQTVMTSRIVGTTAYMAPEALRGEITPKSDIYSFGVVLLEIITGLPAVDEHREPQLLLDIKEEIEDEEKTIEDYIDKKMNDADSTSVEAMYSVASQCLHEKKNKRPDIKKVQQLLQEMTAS

| Structure (SMILES) | IC50 [1] | Papp at 2 h, 3 µM [2] | EC50 [3] |
| --- | --- | --- | --- |
| CCCNc1cc(-n2ncc3cc(C#N)cnc32)ncc1-n1cc(CCC(C)(C)O)nn1 [Example 389, 1-(5-(4-(3-hydroxy-3-methylbutyl)-1H-1,2,3-triazol-1-yl)-4-(propylamino)pyridin-2-yl)-1H-pyrazolo[3,4-b]pyridine-5-carbonitrile] | 14 nM | 30.2 ×10⁻⁶ cm/s | 310 nM |
| CC(C)Nc1cc(-n2ncc3cc(C#N)cnc32)ncc1-n1cc(CCC(C)(C)O)cn1 [Example 390, 1-(5-(4-(3-hydroxy-3-methylbutyl)-1H-pyrazol-1-yl)-4-(isopropylamino)pyridin-2-yl)-1H-pyrazolo[3,4-b]pyridine-5-carbonitrile] | 8 nM | 37.1 ×10⁻⁶ cm/s | 270 nM |
| CC(C)Nc1cc(-n2ncc3cc(C#N)cnc32)ncc1-c1cn([C@H]2CC[C@H](N)CC2)nn1 [Example 392, 1-(5-(1-((1r,4r)-4-aminocyclohexyl)-1H-1,2,3-triazol-4-yl)-4-(isopropylamino)pyridin-2-yl)-1H-pyrazolo[3,4-b]pyridine-5-carbonitrile] | 3 nM | < 1.5 ×10⁻⁶ cm/s | 440 nM |
| COC(=O)N[C@H]1CC[C@H](n2cc(-c3cnc(-n4ncc5cc(C#N)cnc54)cc3NC(C)C)nn2)CC1 [Example 393, methyl ((1r,4r)-4-(4-(6-(5-cyano-1H-pyrazolo[3,4-b]pyridin-1-yl)-4-(isopropylamino)pyridin-3-yl)-1H-1,2,3-triazol-1-yl)cyclohexyl)carbamate] | 2 nM | 10.6 ×10⁻⁶ cm/s | 330 nM |
| CC(C)Nc1cc(-n2ncc3cc(C#N)cnc32)ncc1-c1cn([C@H]2CC[C@H](NCC(F)F)CC2)nn1 [Example 394, 1-(5-(1-((1r,4r)-4-((2,2-difluoroethyl)amino)cyclohexyl)-1H-1,2,3-triazol-4-yl)-4-(isopropylamino)pyridin-2-yl)-1H-pyrazolo[3,4-b]pyridine-5-carbonitrile] | 2 nM | 9.1 ×10⁻⁶ cm/s | 250 nM |
| CCOC(=O)N[C@H]1CC[C@H](n2cc(-c3cnc(-n4ncc5cc(C#N)cnc54)cc3NC(C)C)nn2)CC1 [Example 395, ethyl ((1r,4r)-4-(4-(6-(5-cyano-1H-pyrazolo[3,4-b]pyridin-1-yl)-4-(isopropylamino)pyridin-3-yl)-1H-1,2,3-triazol-1-yl)cyclohexyl)carbamate] | 1 nM | 9.4 ×10⁻⁶ cm/s | 290 nM |
| CC(=O)N1CC(c2cc(-c3cnc(-n4ncc5cc(C#N)cnc54)cc3NC(C)C)on2)C1 [Example 398, 1-(5-(3-(1-acetylazetidin-3-yl)isoxazol-5-yl)-4-(isopropylamino)pyridin-2-yl)-1H-pyrazolo[3,4-b]pyridine-5-carbonitrile] | 4 nM | 6.9 ×10⁻⁶ cm/s | 300 nM |
| CC(C)Nc1cc(-n2ncc3cc(C#N)cnc32)ncc1-c1cc(C(CO)CO)no1 [Example 399, 1-(5-(3-(1,3-dihydroxypropan-2-yl)isoxazol-5-yl)-4-(isopropylamino)pyridin-2-yl)-1H-pyrazolo[3,4-b]pyridine-5-carbonitrile] | 10 nM | < 1.5 ×10⁻⁶ cm/s | 140 nM |
| COC(=O)N1CC(c2cc(-c3cnc(-n4ncc5cc(C#N)cnc54)cc3NC(C)C)on2)C1 [Example 401, methyl 3-(5-(6-(5-cyano-1H-pyrazolo[3,4-b]pyridin-1-yl)-4-(isopropylamino)pyridin-3-yl)isoxazol-3-yl)azetidine-1-carboxylate] | 4 nM | 28 ×10⁻⁶ cm/s | 380 nM |
| CC(=O)N1C2CCC1CC(c1cc(-c3cnc(-n4ncc5cc(C#N)cnc54)cc3NC(C)C)on1)C2 (stereo not drawn) [Example 419, 1-(5-(3-(8-acetyl-8-azabicyclo[3.2.1]octan-3-yl)isoxazol-5-yl)-4-(isopropylamino)pyridin-2-yl)-1H-pyrazolo[3,4-b]pyridine-5-carbonitrile] | 2 nM | 19.9 ×10⁻⁶ cm/s | 430 nM |

Now from value to molecule:

| IC50 [1] | Papp at 2 h, 3 µM [2] | EC50 [3] | Structure (SMILES) |
| --- | --- | --- | --- |
| 2 nM | 19.2 ×10⁻⁶ cm/s | 250 nM | CC(=O)N1CCC(c2cc(-c3cnc(-n4ncc5cc(C#N)cnc54)cc3NC(C)C)on2)CC1 [Example 402, 1-(5-(3-(1-acetylpiperidin-4-yl)isoxazol-5-yl)-4-(isopropylamino)pyridin-2-yl)-1H-pyrazolo[3,4-b]pyridine-5-carbonitrile] |
| 4 nM | < 1.5 ×10⁻⁶ cm/s | 230 nM | CC(C)Nc1cc(-n2ncc3cc(C#N)cnc32)ncc1-c1cc(C2CCNCC2)no1 [Example 403, 1-(4-(isopropylamino)-5-(3-(piperidin-4-yl)isoxazol-5-yl)pyridin-2-yl)-1H-pyrazolo[3,4-b]pyridine-5-carbonitrile] |
| 3 nM | < 1.5 ×10⁻⁶ cm/s | 230 nM | CC(C)Nc1cc(-n2ncc3cc(C#N)cnc32)ncc1-c1cc([C@H]2CCNC2)no1 [Example 404, (S)-1-(4-(isopropylamino)-5-(3-(pyrrolidin-3-yl)isoxazol-5-yl)pyridin-2-yl)-1H-pyrazolo[3,4-b]pyridine-5-carbonitrile] |
| 4 nM | 12.5 ×10⁻⁶ cm/s | 260 nM | CC(=O)N1CC[C@H](c2cc(-c3cnc(-n4ncc5cc(C#N)cnc54)cc3NC(C)C)on2)C1 [Example 405, (S)-1-(5-(3-(1-acetylpyrrolidin-3-yl)isoxazol-5-yl)-4-(isopropylamino)pyridin-2-yl)-1H-pyrazolo[3,4-b]pyridine-5-carbonitrile] |
| 3 nM | 16.3 ×10⁻⁶ cm/s | 470 nM | CC(=O)N1CC[C@@H](c2cc(-c3cnc(-n4ncc5cc(C#N)cnc54)cc3NC(C)C)on2)C1 [Example 406, (R)-1-(5-(3-(1-acetylpyrrolidin-3-yl)isoxazol-5-yl)-4-(isopropylamino)pyridin-2-yl)-1H-pyrazolo [3,4-b]pyridine-5-carbonitrile] |
| 1 nM | 25 ×10⁻⁶ cm/s | 290 nM | CC(=O)N1CCC[C@@H](c2cc(-c3cnc(-n4ncc5cc(C#N)cnc54)cc3NC(C)C)on2)C1 [Example 407, (R)-1-(5-(3-(1-acetylpiperidin-3-yl)isoxazol-5-yl)-4-(isopropylamino)pyridin-2-yl)-1H-pyrazolo[3,4-b]pyridine-5-carbonitrile] |
| 4 nM | 13.9 ×10⁻⁶ cm/s | 400 nM | CC(C)Nc1cc(-n2ncc3cc(C#N)cnc32)ncc1-c1cc(C2CCCCN2)no1 [Example 412, (S)-1-(4-(isopropylamino)-5-(3-(piperidin-2-yl)isoxazol-5-yl)pyridin-2-yl)-1H-pyrazolo[3,4-b]pyridine-5-carbonitrile] |
| 7 nM | < 1.5 ×10⁻⁶ cm/s | 250 nM | CNCCCc1cc(-c2cnc(-n3ncc4cc(C#N)cnc43)cc2NC(C)C)on1 [Example 414, 1-(4-(isopropylamino)-5-(3-(3-(methylamino)propyl)isoxazol-5-yl)pyridin-2-yl)-1H-pyrazolo[3,4-b]pyridine-5-carbonitrile] |
| 3 nM | 18.3 ×10⁻⁶ cm/s | 260 nM | CC(=O)N(C)CCCc1cc(-c2cnc(-n3ncc4cc(C#N)cnc43)cc2NC(C)C)on1 [Example 415, N-(3-(5-(6-(5-cyano-1H-pyrazolo[3,4-b]pyridin-1-yl)-4-(isopropylamino)pyridin-3-yl)isoxazol-3-yl)propyl)-N-methylacetamide] |
| 7 nM | 29.2 ×10⁻⁶ cm/s | 340 nM | CC(=O)N1CCC[C@@H]1c1cc(-c2cnc(-n3ncc4cc(C#N)cnc43)cc2NC(C)C)on1 [Example 417, (R)-1-(5-(3-(1-acetylpyrrolidin-2-yl)isoxazol-5-yl)-4-(isopropylamino)pyridin-2-yl)-1H-pyrazolo [3,4-b]pyridine-5-carbonitrile] |
| 6 nM | 43.8 ×10⁻⁶ cm/s | 350 nM | CC(C)Nc1cc(-n2ncc3cc(C#N)cnc32)ncc1-c1cc([C@@H]2COC(C)(C)O2)no1 [Example 420, (R)-1-(5-(3-(2,2-dimethyl-1,3-dioxolan-4-yl)isoxazol-5-yl)-4-(isopropylamino)pyridin-2-yl)-1H-pyrazolo[3,4-b]pyridine-5-carbonitrile] |
| 3 nM | 32.2 ×10⁻⁶ cm/s | 200 nM | CC(=O)N1CCC(F)(c2cc(-c3cnc(-n4ncc5cc(C#N)cnc54)cc3NC(C)C)on2)CC1 [Example 421, 1-(5-(3-(1-acetyl-4-fluoropiperidin-4-yl)isoxazol-5-yl)-4-(isopropylamino)pyridin-2-yl)-1H-pyrazolo[3,4-b]pyridine-5-carbonitrile] |
| 3 nM | 31.7 ×10⁻⁶ cm/s | 480 nM | CC(C)Nc1cc(-n2ncc3cc(C#N)cnc32)ncc1-c1cc(C2CC(F)(F)CCN2)no1 (stereo not drawn) [Example 422, 1-(5-(3-(4,4-difluoropiperidin-2-yl)isoxazol-5-yl)-4-(isopropylamino)pyridin-2-yl)-1H-pyrazolo [3,4-b]pyridine-5-carbonitrile] |
| 2 nM | 39.4 ×10⁻⁶ cm/s | 160 nM | CC(C)Nc1cc(-n2ncc3cc(C#N)cnc32)ncc1-c1cc(C2COC(C)(C)CN2)no1 (stereo not drawn) [Example 423, 1-(5-(3-(6,6-dimethylmorpholin-3-yl)isoxazol-5-yl)-4-(isopropylamino)pyridin-2-yl)-1H-pyrazolo[3,4-b]pyridine-5-carbonitrile] |
